Earlier results as cited in patent US11553715B2, “Synthesis and formulation of lignin derived compounds as treatment of plant diseases” (University of Kentucky Research Foundation, priority 2019, dated 2023).

In the case of `COc1cc(C=O)ccc1O` [Vanillin], the “antimicrobial concentration as a food preservative” value (yeast) is given as 0.76 mg/mL and the “antimicrobial concentration as a food preservative” value (bacteria) is given as 1.5 mg/mL.
